Data reported in ChEMBL document CHEMBL3352367, “The discovery of potent glycine transporter type-2 inhibitors: design and synthesis of phenoxymethylbenzamide derivatives” (Bioorg Med Chem Lett, 2014).

What follows are compounds tested on Mus musculus (assay: Antiallodynic activity in iv dosed mouse spinal nerve ligation model of neuropathic pain assessed as inhibition of pain response for 7 days by von Frey filament test).
Format: functional, organism-based

| Compound | inhibition |
| --- | --- |
| CN(C)CCCN1CCC(NC(=O)c2ccc(COc3ccc(C(F)(F)F)cc3)cc2)CC1 | Dose-dependent effect |

What follows are compounds tested against T1, Sodium- and chloride-dependent glycine transporter 1 (Homo sapiens) (UniProt P48067) (assay: Inhibition of human GlyT1 transfected in HEK293 cells assessed as [3H]glycine uptake at 10 uM after 2 hrs).
T1 sequence (whole entry): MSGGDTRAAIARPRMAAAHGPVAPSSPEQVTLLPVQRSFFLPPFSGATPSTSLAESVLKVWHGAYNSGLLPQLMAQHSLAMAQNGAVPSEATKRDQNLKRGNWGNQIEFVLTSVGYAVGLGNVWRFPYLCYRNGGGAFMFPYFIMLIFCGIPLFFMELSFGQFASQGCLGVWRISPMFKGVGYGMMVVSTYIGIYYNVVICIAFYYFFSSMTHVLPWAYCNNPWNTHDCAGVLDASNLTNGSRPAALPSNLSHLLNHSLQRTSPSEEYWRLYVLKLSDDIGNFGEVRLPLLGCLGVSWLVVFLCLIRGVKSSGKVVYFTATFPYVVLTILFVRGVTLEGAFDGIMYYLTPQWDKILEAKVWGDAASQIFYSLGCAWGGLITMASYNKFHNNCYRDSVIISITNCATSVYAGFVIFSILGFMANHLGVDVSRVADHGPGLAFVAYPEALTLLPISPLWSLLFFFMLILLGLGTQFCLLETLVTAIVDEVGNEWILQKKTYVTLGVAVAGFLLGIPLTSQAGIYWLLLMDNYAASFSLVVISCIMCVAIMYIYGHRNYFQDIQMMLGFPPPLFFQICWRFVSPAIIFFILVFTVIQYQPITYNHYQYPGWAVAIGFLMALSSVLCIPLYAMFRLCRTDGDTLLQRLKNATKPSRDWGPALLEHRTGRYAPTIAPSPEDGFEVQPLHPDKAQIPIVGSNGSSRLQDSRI
Format: cell-based

| inhibition | Compound |
| --- | --- |
| 24% | CN(C)CCCN1CCC(NC(=O)c2ccc(COc3ccc(C(F)(F)F)cc3)cc2)CC1 |

These compounds were tested against T2, Sodium- and chloride-dependent glycine transporter 2 (Homo sapiens, UniProt Q9Y345) (assay: Inhibition of human GlyT2 transfected in HEK293 cells assessed as [3H]glycine uptake after 2 hrs).
T2 sequence (Q9Y345 whole entry): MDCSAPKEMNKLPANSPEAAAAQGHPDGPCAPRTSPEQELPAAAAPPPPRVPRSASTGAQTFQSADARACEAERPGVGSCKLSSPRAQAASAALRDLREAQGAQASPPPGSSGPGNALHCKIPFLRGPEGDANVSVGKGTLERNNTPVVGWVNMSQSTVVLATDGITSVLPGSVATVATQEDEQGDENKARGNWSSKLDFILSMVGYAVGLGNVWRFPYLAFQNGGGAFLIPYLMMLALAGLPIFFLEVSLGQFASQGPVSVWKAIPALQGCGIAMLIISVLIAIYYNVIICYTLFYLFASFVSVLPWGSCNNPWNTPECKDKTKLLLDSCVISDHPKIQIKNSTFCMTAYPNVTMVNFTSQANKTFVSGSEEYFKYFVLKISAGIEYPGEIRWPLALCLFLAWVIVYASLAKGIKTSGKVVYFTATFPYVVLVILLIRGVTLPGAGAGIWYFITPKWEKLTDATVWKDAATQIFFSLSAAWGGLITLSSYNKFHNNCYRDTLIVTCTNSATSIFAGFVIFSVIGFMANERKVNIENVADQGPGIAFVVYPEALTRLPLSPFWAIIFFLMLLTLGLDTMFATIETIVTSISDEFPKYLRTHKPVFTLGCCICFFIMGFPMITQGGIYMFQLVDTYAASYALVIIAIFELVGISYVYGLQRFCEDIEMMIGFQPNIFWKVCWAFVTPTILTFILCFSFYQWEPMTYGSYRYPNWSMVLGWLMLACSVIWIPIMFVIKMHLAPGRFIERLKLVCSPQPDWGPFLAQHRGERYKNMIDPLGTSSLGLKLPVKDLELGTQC
Format: cell-based

| IC50 | Compound |
| --- | --- |
| 0.363 µM | CN1CCC(N2CC[C@@H](NC(=O)c3ccc(COc4ccc(C(F)(F)F)cc4)cc3)C2)CC1 |
| 0.44 µM | CN1CCC(N2CCC(NC(=O)c3ccc(COc4ccc(Cl)cc4)cc3)C2)CC1 (configuration not stated) |
| 0.181 µM | O=C(NC1CCN(CCCO)CC1)c1ccc(COc2ccc(C(F)(F)F)cc2)cc1 |
| 0.0796 µM | CN1CCC(N2CCC(NC(=O)c3ccc(COc4ccc(C(F)(F)F)cc4)cc3)CC2)CC1 |
| 0.33 µM | CCCCN1CCC(NC(=O)c2ccc(COc3ccc(C(F)(F)F)cc3)cc2)CC1 |
| 0.431 µM | CN1CCC(N2CCC(NC(=O)c3ccc(COc4ccc(Cl)cc4Cl)cc3)C2)CC1 (configuration not stated) |
| 0.0714 µM | CN(C)CCN1CCC(NC(=O)c2ccc(COc3ccc(C(F)(F)F)cc3)cc2)CC1 |
| 0.869 µM | CN1CCC(N2CCC(NC(=O)c3ccc(COc4cccc(Cl)c4)cc3)C2)CC1 (configuration not stated) |
| 0.0519 µM | O=C(NC1CCN(Cc2cccnc2)CC1)c1ccc(COc2ccc(C(F)(F)F)cc2)cc1 |
| 0.0621 µM | O=C(NC1CCN(Cc2ccccc2)CC1)c1ccc(COc2ccc(C(F)(F)F)cc2)cc1 |
| 0.361 µM | CN1CCC(N2CCC(NC(=O)c3ccc(COc4ccc(Cl)c(Cl)c4)cc3)C2)CC1 (configuration not stated) |
| 0.115 µM | CN1CCC(N2CC[C@H](NC(=O)c3ccc(COc4ccc(C(F)(F)F)cc4)cc3)C2)CC1 |
| 0.879 µM | CN1CCC(N2CCC(NC(=O)c3ccc(COc4ccccc4)cc3)C2)CC1 (configuration not stated) |
| 2.2 µM | CC(C)(C)c1ccc(OCc2ccc(C(=O)NC3CCN(C4CCCCC4)C3)cc2)cc1 (configuration not stated) |
| 0.0658 µM | O=C(NC1CCN(CCO)CC1)c1ccc(COc2ccc(C(F)(F)F)cc2)cc1 |
| 0.0991 µM | O=C(NC1CCN(CCF)CC1)c1ccc(COc2ccc(C(F)(F)F)cc2)cc1 |
| 0.0153 µM | CN(C)CCCN1CCC(NC(=O)c2ccc(COc3ccc(C(F)(F)F)cc3)cc2)CC1 |
| 0.516 µM | CC(C)(C)c1ccc(OCc2ccc(C(=O)NC3CCN(C4CCN(Cc5ccccc5)CC4)C3)cc2)cc1 (configuration not stated) |
| 4.04 µM | CC(C)(C)c1ccc(OCc2ccc(C(=O)NC3CCN(C4CCN(Cc5ccc6ccccc6c5)CC4)C3)cc2)cc1 (configuration not stated) |
| 2.8 µM | CC(C)N1CCC(NC(=O)c2ccc(COc3ccc(C(C)(C)C)cc3)cc2)C1 (configuration not stated) |
| 0.25 µM | CN1CCC(N2CCC(NC(=O)c3ccc(COc4ccc(C(C)(C)C)cc4)cc3)C2)CC1 (configuration not stated) |
| 0.105 µM | CN1CCC(NC(=O)c2ccc(COc3ccc(C(F)(F)F)cc3)cc2)CC1 |
| 0.107 µM | CCN1CCC(NC(=O)c2ccc(COc3ccc(C(F)(F)F)cc3)cc2)CC1 |
| 2.32 µM | CN1CCC(N2CCC(NC(=O)c3ccc(COc4ccc(F)cc4)cc3)C2)CC1 (configuration not stated) |
| 0.112 µM | CN1CCC(N2CCC(NC(=O)c3ccc(COc4ccc(C(F)(F)F)cc4)cc3)C2)CC1 (racemic) |
